Assays:
[1] = test system: fasted male Harlan Sprague Dawley rats; assay: Formalin model; type: in vivo, rat
Experimental: (§1) These well known pain models conveniently may be carried out as summarized below. […] All data are analyzed by ANOVA and Dunnett's t-test using JMPv4.1 (SAS Institute Inc., Cary, N.C.) statistical software unless otherwise indicated. Data are expressed as means±SEM. Specific conditions for each model are briefly described.
Formalin model: Drug is administered prior to formalin (50 μl, 5%), injected s.c. into the dorso-lateral surface of the right hindpaw. Paw-licking behavior is measured in an automated assay, as number of events, from 0-50 minutes after formalin. Data are expressed as paw-licking pain behavior events in early phase (0-5 minutes) or late phase (15-40 minutes). […] L5/L6 Spinal Nerve ligation model: Tight ligation is performed on L5 and L6 spinal nerves (one side only). Two weeks later, mechanical allodynia behavior is measured using von Frey filaments using incremental bending forces (0.5-15 g) at various time points after drug administration. Carrageenan model: Carrageenan (100 μl, 3%) is injected into the plantar surface of the right paw, and drug is administered two hours after carrageenan. Thermal hyperalgesia is measured using a radiant heat source, with a 30 second cut off to prevent tissue damage. Paw withdrawal latency in seconds is measured as the difference between the inflammed paw and the non-inflammed left paw. Capsaicin model: Drug is administered prior to capsaicin. Capsaicin (25 μl, 30 μg) in olive oil is injected into the plantar surface of the right paw. Mechanical allodynia behavior is measured using von Frey filaments using incremental bending forces (0.5-15 g) at 15 minutes and 1 hour after capsaicin. Tail Flick model: Radiant heat source at base of tail with 10 sec cut off is used to elicit tail flick response at various time points after drug administration. Rotorod test: Male Sprague Dawley rats (180-230 g, Harlan labs, Indianapolis) are used for the rotorod test. […] Data are analyzed by ANOVA and Dunnett's t-test using JMPv4.1 (SAS Institute Inc., Cary, N.C.) statistical software. Data are expressed as means±SEM.

[2] = test system: fasted male Harlan Sprague Dawley rats; assay: Carrageenan model; type: in vivo, rat; details: fasted male HSD rats, at doses with no deficit in the rotorod test
Experimental: as §1
(§2) Formalin model: Drug is administered prior to formalin (50 μl, 5%), injected s.c. into the dorso-lateral surface of the right hindpaw. Paw-licking behavior is measured in an automated assay, as number of events, from 0-50 minutes after formalin. Data are expressed as paw-licking pain behavior events in early phase (0-5 minutes) or late phase (15-40 minutes). […] Two weeks later, mechanical allodynia behavior is measured using von Frey filaments using incremental bending forces (0.5-15 g) at various time points after drug administration. […] Thermal hyperalgesia is measured using a radiant heat source, with a 30 second cut off to prevent tissue damage. Paw withdrawal latency in seconds is measured as the difference between the inflammed paw and the non-inflammed left paw. […] Mechanical allodynia behavior is measured using von Frey filaments using incremental bending forces (0.5-15 g) at 15 minutes and 1 hour after capsaicin. […] Data are analyzed by ANOVA and Dunnett's t-test using JMPv4.1 (SAS Institute Inc., Cary, N.C.) statistical software. Data are expressed as means±SEM.

[3] = test system: Male Sprague Dawley rats; assay: Rotorod test; type: in vivo, rat; details: at the doses active in the pain models
Experimental: as §1, §2

[4] = target: T1, human recombinant mGlu1a receptor (Homo sapiens, UniProt Q13255); assay: glutamate induced calcium flux (FLIPR, Fluo-3) in AV-12 cells expressing mGlu1a; type: cell-based; details: inhibition of peak fluorescence response to glutamate at EC90% (10 μM)
T1 construct: expressed in transfected cells
Experimental: The relative potency and selectivity of compounds of the instant invention for mGlu1 receptors is evaluated using stable clonal cell lines expressing recombinant mGlu1, 2, 3, 4. 5 or 8 receptors transfected into AV12 cell lines containing the rat EAAT1 glutamate transporter (RGT) cells.
For example, in more detail, compounds of the present invention are evaluated for effects on glutamate induced calcium flux responses using an AV-12 cell line expressing human recombinant mGlu1a receptor protein (see Kingston et al. Neuropharmacology. 37(1):1-12, 1998). mGlu1 receptor mediated responses are determined by changes in intracellular calcium concentrations measured by a fluorescent calcium sensitive dye Fluo-3. […] Unincorporated extracellular dye is removed from the wells by washing with buffer solution, and plates are then transferred to a 96-channel fluorimetric imaging plate reader (FLIPR-Molecular Devices Corporation, La Jolla, Calif., USA). Baseline fluorescence readings are undertaken for 10 sec prior to addition of test compounds by an automatic pipetting device integral to the FLIPR instrument. Following a 20 sec delay, glutamate is then added to the wells at an EC90% concentration (10 μM); and changes in fluorescence are monitored over 60 sec. […] IC50 values are calculated using a 4 parameter logistic curve fitting program (GraphPad Prism™ V4 or Activity Base™ V5.3 software).

[5] = test system: non-fasted male HSD rats; assay: L5/L6 Spinal Nerve ligation model; type: in vivo, rat; details: non-fasted male HSD rats (300-350 g), at doses with no deficit in the rotorod test
Experimental: as §1, §2

[6] = test system: fasted male Harlan Sprague Dawley rats; assay: Capsaicin model; type: in vivo, rat; details: fasted male HSD rats, at doses with no deficit in the rotorod test
Experimental: as §1, §2

[7] = test system: fasted male Harlan Sprague Dawley rats; assay: Tail Flick model; type: in vivo, rat; details: fasted male HSD rats, at doses with no deficit in the rotorod test
Experimental: as §1, §2

[8] = in vivo; cited from earlier work
[9] = in vivo; cited from earlier work; remark: listed apart in the source

T1 sequence (Q13255 19-1194): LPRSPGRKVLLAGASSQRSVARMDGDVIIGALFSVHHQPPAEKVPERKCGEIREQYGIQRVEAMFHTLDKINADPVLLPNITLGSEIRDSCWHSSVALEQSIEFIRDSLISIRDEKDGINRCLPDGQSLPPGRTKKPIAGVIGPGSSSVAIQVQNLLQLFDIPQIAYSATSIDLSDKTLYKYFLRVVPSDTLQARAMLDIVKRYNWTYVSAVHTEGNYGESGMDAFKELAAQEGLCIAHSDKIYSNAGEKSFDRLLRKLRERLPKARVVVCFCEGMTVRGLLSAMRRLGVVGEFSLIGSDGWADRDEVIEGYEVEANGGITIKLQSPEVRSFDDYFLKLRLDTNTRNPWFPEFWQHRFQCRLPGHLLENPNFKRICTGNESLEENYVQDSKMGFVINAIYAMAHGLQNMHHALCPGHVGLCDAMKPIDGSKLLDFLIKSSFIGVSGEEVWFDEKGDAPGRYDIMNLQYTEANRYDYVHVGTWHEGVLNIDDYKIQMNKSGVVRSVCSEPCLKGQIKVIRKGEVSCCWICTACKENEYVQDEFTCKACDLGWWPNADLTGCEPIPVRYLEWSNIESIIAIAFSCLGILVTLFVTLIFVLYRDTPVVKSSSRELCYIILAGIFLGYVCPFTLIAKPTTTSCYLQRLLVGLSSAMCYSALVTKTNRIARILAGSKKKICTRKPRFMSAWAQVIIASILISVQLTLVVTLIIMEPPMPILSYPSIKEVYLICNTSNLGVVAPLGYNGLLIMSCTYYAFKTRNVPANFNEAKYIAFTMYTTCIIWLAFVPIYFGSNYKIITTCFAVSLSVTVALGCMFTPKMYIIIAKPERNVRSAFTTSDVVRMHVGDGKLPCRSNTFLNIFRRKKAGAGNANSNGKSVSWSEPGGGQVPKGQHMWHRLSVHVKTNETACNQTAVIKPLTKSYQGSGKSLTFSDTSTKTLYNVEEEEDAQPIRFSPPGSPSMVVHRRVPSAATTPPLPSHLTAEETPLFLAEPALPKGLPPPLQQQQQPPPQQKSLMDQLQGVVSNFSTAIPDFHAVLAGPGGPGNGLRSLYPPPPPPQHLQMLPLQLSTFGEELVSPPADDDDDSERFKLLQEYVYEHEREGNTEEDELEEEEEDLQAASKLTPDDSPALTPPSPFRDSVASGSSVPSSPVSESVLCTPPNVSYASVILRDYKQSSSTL

Row | SMILES | activity in the formalin model ([1]; fasted male HSD rats, at doses with no deficit in the rotorod test) | late phase pain behavior (paw-licking, 15-40 minutes) ([1]; fasted rats, 3 to 60 mg/kg, p.o., 1 hour prior to formalin) | activity in the carrageenan model [2] | performance in the rotorod test [3] | IC50 [4] [nM] | activity in the L5/L6 spinal nerve ligation model [5] | activity in the capsaicin model [6] | activity in the tail flick model [7] | late phase pain behavior (paw-licking, 15-40 minutes) ([1]; 1 to 30 mg/kg) | mechanical allodynia in the L5/L6 spinal nerve ligation model [8] | nocifensive responses in the formalin test [9]
1 | COc1ccc(-c2nsc(NC(=O)[C@@H]3C[C@H]3C)c2C)cc1 [Example 1, (R,R)—N-[3-(4-methoxyphenyl)-4-methylisothiazol-5-yl]-2-methylcyclopropanecarboxamide] | dose-dependent activity | dose dependent attenuation | dose-dependent activity | no deficit in performance | < 20 | dose-dependent activity | dose-dependent activity | dose-dependent activity | – | – | –
2 | Cc1c(-c2ccc(Cl)cc2)nsc1NC(=O)[C@@H]1C[C@H]1C [Example 6, (R,R)—N-[3-(4-chlorophenyl)-4-methylisothiazol-5-yl]-2-methylcyclopropanecarboxamide] | – | – | – | – | < 20 | – | – | – | dose dependent attenuation | – | –
3 | COc1ccc(Nc2ncnc3ccc(OC)cc23)cc1 [LY456236] | – | – | – | – | – | – | – | – | – | can reduce | can reduce nocifensive responses
